In the supplement of paper PMC10307832:

Legend:
Assay in all cases: relative viability (nuclei count vs DMSO), 5 days (fraction); higher = more cells survive
XMD14-99 + Pemetrexed = compound: CN1CCN(CC1)C2=CC(=C(C=C2)NC3=NC(=C(S3)C(=O)C4=C(C=CC=C4Cl)Cl)N)OC [XMD14-99] + Nc1nc2[nH]cc(CCc3ccc(C(=O)N[C@@H](CCC(=O)O)C(=O)O)cc3)c2c(=O)[nH]1 [Pemetrexed] (partner 0.2 µM)
Method in brief: (§1)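 Relative viability divides the nuclei count in treated wells by that in vehicle wells. Lung cancer cell lines were seeded in 1536-well plates, dosed by pin tool the next day, and fixed and stained after 5 days in one step with final 0.05% Triton X-100, 1% formaldehyde and 1 ug/ml Hoechst. Dosing was a single drug or a fixed anchor-drug dose plus five library-drug doses (not always all listed) in √10 steps, and values are medians of duplicate plates imaged at 4×.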

AZD1208 + OSI-027 = compound: N[C@@H]1CCCN(c2c(/C=C3\SC(=O)NC3=O)cccc2-c2ccccc2)C1 [AZD1208] + COc1cccc2cc(-c3nc([C@H]4CC[C@H](C(=O)O)CC4)n4ncnc(N)c34)[nH]c12 [OSI-027] (partner 0.5 µM)
Method in brief: as §1

AZD1208 + Decitabine = compound: N[C@@H]1CCCN(c2c(/C=C3\SC(=O)NC3=O)cccc2-c2ccccc2)C1 [AZD1208] + Nc1ncn([C@H]2C[C@H](O)[C@@H](CO)O2)c(=O)n1 [Decitabine] (partner 2 µM)
Method in brief: as §1

AZD1208 + Olaparib = compound: N[C@@H]1CCCN(c2c(/C=C3\SC(=O)NC3=O)cccc2-c2ccccc2)C1 [AZD1208] + O=C(c1cc(Cc2n[nH]c(=O)c3ccccc23)ccc1F)N1CCN(C(=O)C2CC2)CC1 [Olaparib] (partner 8 µM)
Method in brief: as §1

Cell Line	relative viability (XMD14-99 + Pemetrexed; first compound 0.08 µM)	relative viability (XMD14-99 + Pemetrexed; first compound 0.8 µM)	relative viability (XMD14-99 + Pemetrexed; first compound 2.53 µM)	relative viability (XMD14-99 + Pemetrexed; first compound 8 µM)	relative viability (AZD1208 + OSI-027; first compound 0.08 µM)	relative viability (AZD1208 + OSI-027; first compound 0.253 µM)	relative viability (AZD1208 + OSI-027; first compound 0.8 µM)	relative viability (AZD1208 + OSI-027; first compound 2.53 µM)	relative viability (AZD1208 + OSI-027; first compound 8 µM)	relative viability (AZD1208 + Decitabine; first compound 0.08 µM)	relative viability (AZD1208 + Decitabine; first compound 0.253 µM)	relative viability (AZD1208 + Decitabine; first compound 0.8 µM)	relative viability (AZD1208 + Decitabine; first compound 2.53 µM)	relative viability (AZD1208 + Decitabine; first compound 8 µM)	relative viability (AZD1208 + Olaparib; first compound 0.08 µM)	relative viability (AZD1208 + Olaparib; first compound 0.253 µM)	relative viability (AZD1208 + Olaparib; first compound 0.8 µM)	relative viability (AZD1208 + Olaparib; first compound 2.53 µM)	relative viability (AZD1208 + Olaparib; first compound 8 µM)
HCC-44	0.648	0.65	0.63	0.627	0.504	0.496	0.512	0.331	0.485	0.98	0.907	0.939	0.995	0.916	0.989	0.918	0.999	0.996	0.919
HCC-827	0.214	0.255	0.265	0.218	0.688	0.751	0.707	0.617	0.667	0.435	0.327	0.281	0.341	0.335	0.623	0.669	0.389	0.641	0.338
NCI-H1623	–	–	–	–	0.445	0.38	0.406	0.366	0.431	–	–	–	–	–	–	–	–	–	–
NCI-H2405	1.02	1.13	1	0.654	0.52	0.575	0.56	0.607	0.532	0.683	0.752	0.695	0.719	0.653	0.806	0.837	0.813	0.813	0.891
PC-3 [JPC-3]	1.28	1.13	1.1	0.635	0.8	0.698	0.762	0.702	0.628	0.81	0.932	0.751	0.887	0.81	1.17	1.31	1.1	1.2	1.19
NCI-H1651	0.605	0.564	0.585	0.477	0.679	0.878	0.534	0.595	0.503	0.665	0.642	–	0.613	0.554	0.198	0.186	–	0.172	0.172
HARA	0.21	0.29	0.265	0.237	0.467	0.497	0.468	0.433	0.277	0.767	0.578	0.486	0.536	0.545	0.825	0.471	0.646	0.743	0.895
NCI-H1650	0.387	0.369	0.359	0.321	0.592	0.516	0.568	0.434	0.473	0.513	0.502	0.403	0.376	0.449	0.712	0.787	0.839	0.856	0.796
NCI-H1395	0.838	0.953	0.904	0.729	0.624	0.569	0.578	0.624	0.491	0.724	0.785	0.714	0.719	0.685	0.479	0.432	0.406	0.421	0.381
NCI-H1993	0.708	0.541	0.524	0.448	0.599	0.447	0.616	0.491	0.536	0.526	0.586	0.613	0.5	0.468	0.777	0.973	0.911	0.968	0.736
LU99A	0.199	0.174	0.191	0.156	0.295	0.29	0.291	0.264	0.238	0.991	0.899	0.795	0.852	0.799	0.273	0.266	0.273	0.235	0.246
NCI-H1355	1.09	1.06	0.945	0.896	0.389	0.31	0.315	0.285	0.273	0.331	0.327	0.335	0.341	0.33	0.717	0.689	0.672	0.68	0.657
HCC-78	0.852	0.899	0.943	0.934	0.41	0.395	0.375	0.374	0.332	0.685	0.629	0.646	0.704	0.697	0.859	0.904	0.762	0.815	0.754
NCI-H1563	0.884	0.937	0.787	0.751	0.721	0.708	0.704	0.695	0.596	–	–	–	–	–	–	–	–	–	–
HCC-15	0.208	0.218	0.221	0.209	0.63	0.673	0.491	0.467	0.437	0.612	0.624	0.491	0.576	0.575	0.664	0.718	0.66	0.636	0.613
EKVX	0.366	0.338	0.328	0.362	0.674	0.651	0.634	0.673	0.648	0.286	0.356	0.327	0.351	0.344	0.793	0.941	0.811	0.829	0.821
NCI-H2126	0.634	0.681	0.677	0.537	0.74	0.704	0.68	0.613	0.674	0.563	0.641	0.523	0.501	0.475	0.944	0.917	0.759	0.912	0.828

Cell Line	relative viability (XMD14-99 + Pemetrexed; first compound 0.08 µM)	relative viability (XMD14-99 + Pemetrexed; first compound 0.8 µM)	relative viability (XMD14-99 + Pemetrexed; first compound 2.53 µM)	relative viability (XMD14-99 + Pemetrexed; first compound 8 µM)	relative viability (AZD1208 + OSI-027; first compound 0.08 µM)	relative viability (AZD1208 + OSI-027; first compound 0.253 µM)	relative viability (AZD1208 + OSI-027; first compound 0.8 µM)	relative viability (AZD1208 + OSI-027; first compound 2.53 µM)	relative viability (AZD1208 + OSI-027; first compound 8 µM)	relative viability (AZD1208 + Decitabine; first compound 0.08 µM)	relative viability (AZD1208 + Decitabine; first compound 0.253 µM)	relative viability (AZD1208 + Decitabine; first compound 0.8 µM)	relative viability (AZD1208 + Decitabine; first compound 2.53 µM)	relative viability (AZD1208 + Decitabine; first compound 8 µM)	relative viability (AZD1208 + Olaparib; first compound 0.08 µM)	relative viability (AZD1208 + Olaparib; first compound 0.253 µM)	relative viability (AZD1208 + Olaparib; first compound 0.8 µM)	relative viability (AZD1208 + Olaparib; first compound 2.53 µM)	relative viability (AZD1208 + Olaparib; first compound 8 µM)
LK-2	0.219	0.247	0.258	0.119	0.184	0.155	0.157	0.123	0.144	0.316	0.291	0.23	0.274	0.195	0.677	0.736	0.444	0.324	0.353
NCI-H1437	0.303	0.313	0.307	0.27	0.821	1.07	0.837	0.774	0.764	0.546	0.594	0.638	0.581	0.536	0.651	0.648	0.606	0.673	0.676
COR-L23	0.192	0.207	0.166	0.184	0.762	0.779	0.642	0.728	0.452	0.439	0.502	0.412	0.396	0.395	0.307	0.354	0.372	0.304	0.321
ABC-1	–	–	–	–	0.417	0.444	0.487	0.377	0.436	0.926	1.07	0.992	0.989	0.821	0.623	0.813	0.56	1.17	0.759
SW 900	0.518	0.476	0.461	0.471	0.678	0.578	0.398	0.439	0.438	0.456	0.407	0.382	0.395	0.444	0.692	0.538	0.893	0.923	0.668
PC-14	0.148	0.138	0.115	0.131	0.838	0.881	0.722	0.586	0.621	0.254	0.209	0.224	0.203	0.207	0.381	0.248	0.27	0.365	0.257
NCI-H1648	0.61	0.564	0.554	0.542	0.246	0.244	0.268	0.244	0.274	0.631	0.476	0.464	0.547	0.567	1.09	1.44	0.663	0.828	0.939
A549	–	–	–	–	–	–	–	–	–	0.238	0.301	0.218	0.314	0.17	0.345	0.38	0.306	0.261	0.235
A-427	0.952	0.946	0.892	0.645	0.453	0.543	0.469	0.41	0.378	0.541	0.568	0.528	0.508	0.448	0.674	0.758	0.605	0.713	0.661
NCI-H1703	–	–	–	–	–	–	–	–	–	–	–	–	–	–	0.416	0.334	0.268	0.384	0.337
Calu-6	–	–	–	–	–	–	–	–	–	–	–	–	–	–	0.572	0.648	0.591	0.592	0.639
EBC-1	–	–	–	–	–	–	–	–	–	–	–	–	–	–	0.709	0.707	0.63	0.687	0.624
NCI-H1299	–	–	–	–	–	–	–	–	–	–	–	–	–	–	0.999	1.01	0.974	0.957	0.987
IA-LM	–	–	–	–	–	–	–	–	–	–	–	–	–	–	0.907	0.777	0.774	0.807	0.904
NCI-H727	–	–	–	–	0.576	0.561	0.414	0.468	0.548	0.906	0.689	0.589	0.867	0.854	0.793	0.556	0.917	0.743	0.734
NCI-H2228	0.324	0.319	0.398	0.257	0.5	0.586	0.406	0.308	0.304	–	–	–	–	–	0.557	0.754	0.584	0.527	0.673
CAL-12T	1.2	1.28	1.12	0.885	0.61	0.668	0.583	0.506	0.436	–	–	–	–	–	0.81	0.737	0.633	0.711	0.797
